Assay results reported in patent publication US7214396B2, “Confectionery product containing functional ingredients and method of making and using” (Nestec S.A., priority 2000, dated 2007).

Columns and labels:
[1] = cited from earlier work; for solubility: water at 37° C.
[2] = cooling effect: instant fall of temperature when powder is added to water; type: physicochemical; settings: 150 g of powder added to 50 ml of water at 37° C.
Experimental: A suitable monosaccharide polyol is preferably selected from the group consisting of xylitol, erythritol, sorbitol or a combination thereof. […] (Instant fall of temperature when 150 g of powder are added to 50 ml of water at 37° C.).

Row | measured cooling effect (instant fall of temperature) [2] | SMILES | solubility [1] | water solubility compared with other polyols ([1]; anhydride crystals)
1 | – | OC[C@H]1O[C@@](CO)(O[C@H]2O[C@H](CO)[C@@H](O)[C@H](O)[C@H]2O)[C@@H](O)[C@@H]1O [sucrose, reference compound] | under 230 g/100 g | –
2 | about −20 °C | OC[C@@H](O)[C@H](O)[C@@H](O)CO [xylitol] | 250–260 g/100 g | –
3 | – | OC[C@@H](O)[C@@H](O[C@H]1O[C@H](CO)[C@@H](O)[C@H](O)[C@H]1O)[C@H](O)[C@@H](O)CO [maltitol, reference compound] | less than 205 g/100 g | –
4 | about −22 °C | OC[C@@H](O)[C@@H](O)[C@H](O)[C@@H](O)CO [sorbitol] | 330–340 g/100 g | –
5 | – | OC[C@@H](O)[C@@H](O)CO [Erythritol] | – | less water soluble
